Data set [1] is described as follows: acute toxicity in mice, i.v. The settings on record: mouse, in vivo, iv. Here is the method:
Acute toxicity was determined by using female mice of NMRI-Strain with an age of about 7 months and weighing 30-40 g. The administration of the test compound was i.v.

Data set [2] deals with thrombocytes from a cow. Description: antithrombotic activity in vitro: inhibition of ADP- and collagen-induced aggregation of thrombocytes, turbidimetric. Type of data set: cell-based. The settings on record: cow plasma; for inhibition of ADP-induced aggregation of thrombocytes: ADP added after 10 min incubation; for inhibition of collagen-induced aggregation of thrombocytes: collagen added after 10 min incubation. Here is the method: The antithrombotic activity was investigated in vitro. The inhibiting activity of the compounds against ADP- and collagen-induced aggregation of thrombocytes was measured. In the test thrombocytes from a cow were used. To 1.2 ml of plasma containing 250000 thrombocytes/mm^3 were added 50 µl of a solution of the compound to be tested. After 10 min incubation either ADP or collagen was added. The aggregation of the thrombocytes was turbidimetrically determined at X = 605 nm.

Data set [3] has as its system Sprague-Dawley rats. In words: anti-hypertensive test in urethane-anesthetized rats, blood pressure and pulse frequency recorded after injection. In kind it is in vivo. Here is the method:
The anti-hypertensive properties of the imidazole derivatives of the present invention have been determined according to the following procedure. Sprague-Dawley rats of normal weight were first anesthetized with urethane. After this, the femoral artery was connected by way of a polyethylene tube with a blood pressure transducer. The test substance was then injected into the femoral vein and the blood pressure and the pulse frequency were registered with a recorder.

In data set [4] the test system is Sprague-Dawley rats. The description is as above. Type of data set: in vivo. To be noted: i.c.v. dosage compared with i.v.
Where [5] appears, read: dose of the maximum not stated, within the active dose range.

Structures are written as SMILES.

Compound `Cc1cccc(C)c1CCC(O)c1nccn1Cc1ccccc1` (centres unmarked) [1-Benzyl-2-[3-(2,6-dimethylphenyl)-1-hydroxypropyl]-imidazole] had a 50% lethal dose (LD50) in data set [1] of 65 mg/kg. In addition, in data set [2], the “inhibition of ADP-induced aggregation of thrombocytes” value was “effectively” and the “inhibition of collagen-induced aggregation of thrombocytes” value was “effectively”.
`Cc1ccccc1Cc1nc(C)c(C)[nH]1` [2-(2-methylbenzyl)-4,5-dimethyl-imidazole] returned a median lethal dose (LD50) in data set [1] of 30 mg/kg. In data set [2], the “inhibition of ADP-induced aggregation of thrombocytes” value is reported as “effectively” and the “inhibition of collagen-induced aggregation of thrombocytes” value is on record as “effectively”.
The compound `Cc1c[nH]c(CCc2cccc(C)c2C)n1` [2-[2-(2,3-dimethylphenyl)-ethyl]-4-methyl-imidazole] had an LD50 in data set [1] of 35 mg/kg. In addition, the “maximal decrease of the blood pressure” value in data set [3] (setting [5]) came out at 32%. Further, in data set [2], the “inhibition of ADP-induced aggregation of thrombocytes” value is listed as “effectively” and the “inhibition of collagen-induced aggregation of thrombocytes” value is on record as “effectively”.
For `Cc1cccc(CCC2=NCCN2)c1C` [2-[2-(2,3-dimethylphenyl)-ethyl]-imidazoline], the 50% lethal dose (LD50) in data set [1] amounted to 30 mg/kg. Besides, the “maximal decrease of the blood pressure” value in data set [3] (setting [5]) was 26%.
For `Cc1ccc(C)c(CC(O)c2ncc[nH]2)c1` (centres unmarked) [2-[2-(2,5-dimethylphenyl)-1-hydroxyethyl]-imidazole], the 50% lethal dose (LD50) in data set [1] stood at 45 mg/kg. Besides, in data set [2], the “inhibition of ADP-induced aggregation of thrombocytes” value is recorded as “effectively” and the “inhibition of collagen-induced aggregation of thrombocytes” value is given as “effectively”.
As to `Cc1ccc(C)c(CCc2ncc[nH]2)c1` [2-[2-(2,5-dimethylphenyl)-ethyl]-imidazole], in data set [1], the LD50 was determined as 30 mg/kg. Besides, in data set [3] (obtained with a dose of 10 mg/kg i.v.), the “maximal decrease of the blood pressure” value was determined as 37%.
Regarding `Cc1cccc(C)c1C=Cc1ncc[nH]1` [2-[2-(2,6-dimethylphenyl)-ethenyl]-imidazole], the 50% lethal dose (LD50) in data set [1] is 40 mg/kg. In data set [3] (dose 3 mg/kg i.v. in rats), the “lowers the blood pressure by” value is 17 per cent. In addition, in data set [3] (dose not stated), the pulse frequency result is given as “no effect”.
For the compound `Cc1c[nH]c(CCc2c(C)cccc2C)n1` [2-[2-(2,6-dimethylphenyl)-ethyl]-4-methyl-imidazole], in data set [1], the LD50 stood at 25 mg/kg. Moreover, in data set [3] (dosage 300 µg/kg i.v.), the “lowered the blood pressure by” value was 45%.
For `Cc1cccc(C)c1CCc1ncc[nH]1` [2-[2-(2,6-dimethylphenyl)-ethyl]-imidazole], the median lethal dose (LD50) in data set [1] was found to be 20 mg/kg. In addition, the pulse frequency entry in data set [3] (at high dosages) is on record as “slight decrease”. Further, the “effect on blood pressure” value in data set [3] (dose 300 µg/kg i.v.) was “lowered blood pressure of long duration”; in data set [3] (dose 30 and 100 µg/kg i.v. in rats), “lowered the blood pressure for a shorter time”; in data set [3] (doses of 30 mg/kg i.v.) it was “did not elevate the blood pressure”. Also, the “decrease of the blood pressure” value in data set [3] (dose 3 mg/kg i.v., rats) came to 30%. Also, the “blood pressure lowered by i.c.v. dosage with smaller amounts (than i.v.)” value in data set [4] stood at 10 x. In addition, the “inhibition of ADP-induced aggregation of thrombocytes” value in data set [2] was “effectively”. In addition, the “inhibition of collagen-induced aggregation of thrombocytes” value in data set [2] is recorded as “effectively”.
In data set [1], `Cc1cccc(C)c1CCC1=NCCN1` [2-[2-(2,6-dimethylphenyl)-ethyl]-imidazoline] gave an LD50 of 25 mg/kg. Also, the “lowers the blood pressure by” value in data set [3] (dose 1-3 mg/kg in rats) is 20%.
Turning to `Cc1cccc(C)c1CC(O)c1ncc[nH]1` (stereo not drawn) [2-[2-(2,6-dimethylphenyl)-l-hydroxyethyl]-imidazole], in data set [1], the median lethal dose (LD50) was 60 mg/kg. Also, the “effect on blood pressure” value in data set [3] (dose 10 mg/kg) is reported as “lowers the blood pressure for a longer period”; in data set [3] (dose 1 and 3 mg/kg i.v.), “lowering of the blood pressure of short duration”. The pulse frequency result in data set [3] (dose not stated) is reported as “very slightly influenced”.
For `Cc1ccc(CC(O)c2ncc[nH]2)cc1C` (centres unmarked) [2-[2-(3,4-dimethylphenyl)-1-hydroxyethyl]-imidazole], the LD50 in data set [1] was 50 mg/kg. Moreover, in data set [3] (setting [5]), the “maximal decrease of the blood pressure” value came out at 17%.
In data set [1], `Cc1ccc(CCc2ncc[nH]2)cc1C` [2-[2-(3,4-dimethylphenyl)-ethyl]-imidazole] displayed a 50% lethal dose (LD50) of 40 mg/kg. Also, the “lowered the blood pressure by” value in data set [3] (dose 10 mg/kg) came out at 20%.

The LD50 is the dose expected to kill half of the subjects tested. A high value points to a less toxic substance.

Values taken from patent publication EP0064820A1, “Substituted imidazole and imidazoline derivatives and their preparation and use” (Farmos-Yhtyma Oy, priority 1981, dated 1982).
